Data set [1] can be described thus: Cytotoxicity against African green monkey Vero cells infected with Herpes simplex virus 1 after 72 hrs by MTT assay. It counts as cell-based. The settings on record: chlorocebus sabaeus, read-out: TC50. On the technique in general: Tetrazolium assays rely on reduction of a dye to a coloured formazan, in cell work by metabolically active cells.
The test system of a further data set is Human alphaherpesvirus 1. Briefly: Antiviral activity against Herpes simplex virus 1 infected in African green monkey Vero cells assessed as inhibition of virus-induced cytopathogenic effect by microscopic analysis. It counts as functional, organism-based. The settings on record: Human alphaherpesvirus 1, Vero. For orientation: Damage to the host cells serves as the signal in cytopathic effect assays.

The test system of the next data set is Influenza A virus H3N2. Briefly: Antiviral activity against Influenza A virus H3N2 infected in African green monkey Vero cells assessed as inhibition of virus-induced cytopathogenic effect by microscopic analysis. It counts as functional, organism-based.
A short description of data set [2]: Selectivity index, ratio of TC50 against African green monkey Vero cells infected with Herpes simplex virus 1 after 72 hrs by MTT assay to IC50 against Herpes simplex virus 1 infected in African green monkey Vero cells assessed as inhibition of virus-induced cytopathogenic effect by microscopic analysis. It counts as toxicity. As to conditions: read-out: Selectivity Index.

A short description of data set [3]: Selectivity index, ratio of TC50 against African green monkey Vero cells infected with Influenza A virus H3N2 after 72 hrs by MTT assay to IC50 against Influenza A virus H3N2 infected in African green monkey Vero cells assessed as inhibition of virus-induced cytopathogenic effect by microscopic analysis. It counts as toxicity. The settings on record: read-out: Selectivity Index.

Values after ≈ are worked out from the molar mass of the structure shown.

A word on the IC50: it is the midpoint of a concentration-inhibition curve.

As for `Nc1nc(=O)n([C@@H]2O[C@H](CO)[C@@H](O)[C@H]2O)c2nc[nH]c(=O)c12`, the CC50 at 72 h in data set [1] is 2.97 µg/mL (≈ 9.54 µM). The 50% inhibitory concentration (IC50) is more than 0.79 µg/mL in the data set with Human alphaherpesvirus 1 and more than 1.37 µg/mL in the data set with Influenza A virus H3N2.
Consider `C[C@H]1O[C@@H](n2c(=O)nc(N)c3c(=O)[nH]c(N)nc32)[C@H](O)[C@@H]1O`, for which the CC50 at 72 h in data set [1] stood at 8.56 µg/mL (≈ 27.6 µM). Besides, the half-maximal inhibitory concentration (IC50) was 2.08 µg/mL (≈ 6.7 µM) in the data set on Human alphaherpesvirus 1 and more than 4.12 µg/mL with Influenza A virus H3N2. In addition, the selectivity ratio at 72 h in data set [2] was 4.1.
Regarding `Nc1nc2[nH]c(=O)nc(N)c2c(=O)[nH]1`, the CC50 at 72 h in data set [1] was determined as 16 µg/mL (≈ 82.6 µM). The half-inhibitory concentration (IC50) with Human alphaherpesvirus 1 is more than 9.26 µg/mL; with Influenza A virus H3N2 it was 27.8 µg/mL (≈ 143 µM).
As for `O/N=C/c1c(Cl)ncnc1NCc1ccc(Br)cc1`, in data set [1], the CC50 at 72 h amounted to 12.8 µg/mL (≈ 37.6 µM). The half-inhibitory concentration (IC50) with Human alphaherpesvirus 1 turned out to be 0.82 µg/mL (≈ 2.4 µM). For the same compound, in data set [2], the selectivity ratio at 72 h turned out to be 15.7.
As for `Nc1ncn([C@@H]2O[C@H](CO)[C@@H](O)[C@H]2O)c2nc(=O)[nH]c(=O)c1-2`, the CC50 at 72 h in data set [1] was found to be 577 µg/mL (≈ 1850 µM). Besides, the half-maximal inhibitory concentration (IC50) with Human alphaherpesvirus 1 and in the data set with Influenza A virus H3N2 was more than 333 µg/mL throughout.
As for `O/N=C/c1c(Cl)ncnc1NCc1ccccc1`, the CC50 at 72 h in data set [1] came to 7.41 µg/mL (≈ 28.2 µM). Further, the IC50 with Human alphaherpesvirus 1 came to 1.92 µg/mL (≈ 7.31 µM). Further, the selectivity ratio at 72 h in data set [2] stood at 3.86.
Consider `Nc1ncn([C@H]2O[C@@H](CO)[C@H](O)[C@@H]2O)c2nc(=O)[nH]c(=O)c1-2`, for which, in data set [1], the CC50 at 72 h was 577 µg/mL (≈ 1850 µM). Besides, the concentration for half-maximal inhibition (IC50) with Human alphaherpesvirus 1 was 333 µg/mL (≈ 1070 µM); with Influenza A virus H3N2, more than 333 µg/mL. The selectivity ratio at 72 h in data set [2] was found to be 1.7.
With `COc1ccc(Cn2c(=O)nc(N)c3c(OC)nc(N)nc32)cc1`, the CC50 at 72 h in data set [1] was determined as 55.6 µg/mL (≈ 169 µM). In addition, the half-maximal inhibitory concentration (IC50) with Human alphaherpesvirus 1 was 12.9 µg/mL (≈ 39.3 µM); in the data set with Influenza A virus H3N2, 18.5 µg/mL (≈ 56.4 µM). Besides, the selectivity ratio at 72 h in data set [2] was 4.3; in data set [3], 3.3.
With `COc1nc(N)nc2[nH]c(=O)nc(N)c12`, the CC50 at 72 h in data set [1] is 48.1 µg/mL (≈ 231 µM). For the same compound, the values for the IC50 in the data set on Human alphaherpesvirus 1 and in the data set on Influenza A virus H3N2 were 7.31 µg/mL (≈ 35.1 µM) and more than 9.26 µg/mL, respectively. For the same compound, the selectivity ratio at 72 h in data set [2] turned out to be 6.6.
As to `CC(C)(C)c1ccc(CNc2ncnc(Cl)c2/C=N\O)cc1`, the CC50 at 72 h in data set [1] was 1.43 µg/mL (≈ 4.49 µM). Besides, the IC50 in the data set with Human alphaherpesvirus 1 was 0.48 µg/mL (≈ 1.51 µM). Further, in data set [2], the selectivity ratio at 72 h turned out to be 2.97.
For `O/N=C/c1c(Cl)ncnc1NCc1ccc(Cl)cc1`, in that order: 3.18 µg/mL (≈ 10.7 µM), 0.57 µg/mL (≈ 1.92 µM) and 5.58.
For `Nc1ccc(CNc2ncnc(Cl)c2/C=N/O)cc1`, in that order: 2.47 µg/mL (≈ 8.89 µM), 0.47 µg/mL (≈ 1.69 µM) and 5.26.
Take `Cc1ccc(CNc2ncnc(Cl)c2/C=N/O)cc1`: the CC50 at 72 h in data set [1] amounted to 1.11 µg/mL (≈ 4.01 µM). In the data set with Human alphaherpesvirus 1, the half-maximal inhibitory concentration (IC50) is 0.21 µg/mL (≈ 0.759 µM). In data set [2], the selectivity ratio at 72 h worked out at 5.29.
For `COc1ccccc1CCNc1ncnc(Cl)c1/C=N/O`, in that order: 80.1 µg/mL (≈ 261 µM), 3.56 µg/mL (≈ 11.6 µM) and 22.5.
Turning to `COc1ccccc1Nc1ncnc(Cl)c1/C=N/O`, the CC50 at 72 h in data set [1] was found to be 8.9 µg/mL (≈ 31.9 µM). Further, the IC50 with Human alphaherpesvirus 1 worked out at 1.43 µg/mL (≈ 5.13 µM). Besides, the selectivity ratio at 72 h in data set [2] is 6.22.
For `Nc1nc2c(c(N)nc(=O)n2[C@@H]2O[C@H](CO)[C@@H](O)[C@H]2O)c(=O)[nH]1`, the CC50 at 72 h in data set [1] came to 144 µg/mL (≈ 442 µM). For the same compound, the IC50 was more than 83.3 µg/mL in the data set on Human alphaherpesvirus 1 and 9.26 µg/mL (≈ 28.4 µM) with Influenza A virus H3N2. Also, in data set [3], the selectivity ratio at 72 h is 13.
Take `COc1ccc(CNc2ncnc(Cl)c2/C=N/O)cc1`: in data set [1], the CC50 at 72 h worked out at 2.47 µg/mL (≈ 8.44 µM). The 50% inhibitory concentration (IC50) in the data set on Human alphaherpesvirus 1 is 0.35 µg/mL (≈ 1.2 µM). The selectivity ratio at 72 h in data set [2] is 7.06.

The values above are taken from ChEMBL document CHEMBL4340503, “Antiviral activities of Janus-type nucleosides and their related oxime-intermediates” (Bioorg Med Chem, 2019).
